From patent US20050282755A1, “Compositions having antimicrobial activity and uses thereof” (priority 2004, published 2005)
Converted amounts (≈) assume the structure as drawn. Starred links: 1 amine or outer side, 2 acyl side, 3 side chain; linkers in the order of their positions; H or OH if unused. Non-standard residues stand in square brackets, D forms with d. Residues, ends and D or L forms follow the SMILES beside them. *: point of attachment. 1Nal = N[C@@H](Cc1cccc2ccccc12)C(=O)O; Ethylenediamine = C(CN[*:2])N[*:1]; Palmitoyl = CCCCCCCCCCCCCCCC(=O)*; Lauroyl = CCCCCCCCCCCC(=O)*

Columns and labels:
Assay type in all cases: cell-based
[1] = test system: Pseudomonas aeruginosa ATCC 27853; experiment: MIC, NCCLS M7-A6 broth microdilution (Table 9, no superscript); settings: ATCC 27853
Procedure, shortened: (§1)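 Broth microdilution in cation-adjusted Mueller Hinton broth, log-phase inoculum giving 5×10^5 to 1×10^6 CFU/milliliter per well. Overnight incubation at 37° C. MIC taken as lowest peptide concentration with no visible turbidity versus a no-peptide control.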

[2] = test system: Staphylococcus epidermidis ATCC 12228; experiment: as above; settings: ATCC 12228
Procedure, shortened: as §1

[3] = test system: Escherichia coli ATCC 25922; experiment: as above; settings: ATCC 25922
Procedure, shortened: as §1

[4] = test system: Salmonella dublin (Lane); experiment: as above
Procedure, shortened: as §1

[5] = test system: Staphylococcus aureus ATCC 29213; experiment: MIC, NCCLS M7-A6 broth microdilution, cation-adjusted Mueller Hinton broth (Table 9, no superscript); settings: ATCC 29213
Procedure, shortened: as §1

Row | Compound | MIC P. aeruginosa [1] | MIC S. epidermidis [2] | MIC E. coli [3] | MIC S. dublin [4] | MIC S. aureus [5]
1 | CCCCCCCCCCCC(=O)N[C@H](CCCNC(=N)N)C(=O)N[C@H](CO)C(=O)N[C@H](CCCNC(=N)N)C(=O)N[C@H](Cc1c[nH]c2ccccc12)C(=O)N[C@H](CCCNC(=N)N)C(=O)N[C@H](CC(=O)O)C(=O)N[C@@H](C(=O)N[C@H](C)C(=O)N[C@H](CCCNC(=N)N)C(=O)N[C@H](CC(N)=O)C(=O)N[C@H](Cc1ccccc1)C(=O)N[C@H](CO)C(=O)N[C@H](CCCNC(=N)N)C(N)=O)C(C)C [Peptide 235, Lauryl-rsrwrdvarnfsr-NH2] (Lauroyl-[dR][dS][dR][dW][dR][dD][dV][dA][dR][dN][dF][dS][dR]-NH2) | 64 µg/mL (≈ 33.9 µM) | 8 µg/mL (≈ 4.24 µM) | 16 µg/mL (≈ 8.48 µM) | 32 µg/mL (≈ 17 µM) | 16 µg/mL (≈ 8.48 µM)
2 | CCCCCCCCCCCCCCCC(=O)NCCNC(=O)[C@H](CCCNC(=N)N)NC(=O)[C@H](CC(C)C)NC(=O)[C@H](Cc1ccccc1)NC(=O)[C@H](CC(N)=O)NC(=O)[C@H](CCCNC(=N)N)NC(=O)[C@H](C)NC(=O)[C@@H](NC(=O)[C@H](CC(=O)O)NC(=O)[C@H](CCCNC(=N)N)NC(=O)[C@H](Cc1c[nH]c2ccccc12)NC(=O)[C@H](CCCNC(=N)N)NC(=O)[C@H](CO)NC(=O)[C@@H](N)CCCNC(=N)N)C(C)C [Peptide 172, H2N-RSRWRDVARNFLR-Ethylamidopalmitoyl] (H-RSRWRDVARNFLR-{Ethylenediamine-Palmitoyl}; C-terminus assumed) | >64 µg/mL | 64 µg/mL (≈ 31.8 µM) | >64 µg/mL | >64 µg/mL | >64 µg/mL
3 | CCCCCCCCCCCC(=O)N[C@@H](CCCNC(=N)N)C(=O)N[C@@H](CO)C(=O)N[C@@H](CCCNC(=N)N)C(=O)N[C@@H](Cc1c[nH]c2ccccc12)C(=O)N[C@@H](CCCNC(=N)N)C(=O)N[C@@H](CC(=O)O)C(=O)N[C@H](C(=O)N[C@@H](C)C(=O)N[C@@H](CCCNC(=N)N)C(=O)N[C@@H](CC(N)=O)C(=O)N[C@@H](Cc1ccccc1)C(=O)N[C@@H](CC(C)C)C(N)=O)C(C)C [Peptide 161, Lauryl-RSRWRDVARNFL-NH2] (Lauroyl-RSRWRDVARNFL-NH2) | >64 µg/mL | 4 µg/mL (≈ 2.28 µM) | 16 µg/mL (≈ 9.11 µM) | >64 µg/mL | 8 µg/mL (≈ 4.55 µM)
4 | CCCCCCCCCCCC(=O)N[C@@H](CO)C(=O)N[C@@H](CCCNC(=N)N)C(=O)N[C@@H](Cc1c[nH]c2ccccc12)C(=O)N[C@@H](CCCNC(=N)N)C(=O)N[C@@H](CC(=O)O)C(=O)N[C@H](C(=O)N[C@@H](C)C(=O)N[C@@H](CCCNC(=N)N)C(=O)N[C@@H](CC(N)=O)C(=O)N[C@@H](Cc1ccccc1)C(=O)N[C@@H](CC(C)C)C(=O)N[C@@H](CCCNC(=N)N)C(N)=O)C(C)C [Peptide 162, Lauryl-SRWRDVARNFLR-NH2] (Lauroyl-SRWRDVARNFLR-NH2) | >64 µg/mL | 8 µg/mL (≈ 4.55 µM) | 32 µg/mL (≈ 18.2 µM) | 16 µg/mL (≈ 9.11 µM) | 4 µg/mL (≈ 2.28 µM)
5 | CCCCCCCCCCCC(=O)N[C@H](CCCNC(=N)N)C(=O)N[C@H](CO)C(=O)N[C@H](CCCNC(=N)N)C(=O)N[C@H](Cc1c[nH]c2ccccc12)C(=O)N[C@H](CCCNC(=N)N)C(=O)N[C@H](CC(=O)O)C(=O)N[C@@H](C(=O)N[C@H](C)C(=O)N[C@H](CCCNC(=N)N)C(=O)N[C@H](CC(N)=O)C(=O)N[C@H](Cc1ccccc1)C(=O)N[C@H](CCSC)C(=O)N[C@H](C)C(N)=O)C(C)C [Peptide 231, Lauryl-rsrwrdvarnfma-NH2] (Lauroyl-[dR][dS][dR][dW][dR][dD][dV][dA][dR][dN][dF][dM][dA]-NH2) | 32 µg/mL (≈ 17.3 µM) | 4 µg/mL (≈ 2.17 µM) | >64 µg/mL | >64 µg/mL | 32 µg/mL (≈ 17.3 µM)
6 | CCCCCCCCCCCC(=O)N[C@@H](CCCNC(=N)N)C(=O)N[C@@H](CO)C(=O)N[C@@H](CCCNC(=N)N)C(=O)N[C@@H](Cc1cccc2ccccc12)C(=O)N[C@@H](CCCNC(=N)N)C(=O)N[C@@H](CC(=O)O)C(=O)N[C@H](C(=O)N[C@@H](C)C(=O)N[C@@H](CCCNC(=N)N)C(=O)N[C@@H](CC(N)=O)C(=O)N[C@@H](Cc1cccc2ccccc12)C(=O)N[C@@H](CCSC)C(=O)N[C@@H](CCCNC(=N)N)C(N)=O)C(C)C [Peptide 154, Lauryl-RSRZRDVARNZMR-NH2 Z = 1-naphthylalanine] (Lauroyl-RSR[1Nal]RDVARN[1Nal]MR-NH2) | >64 µg/mL | 8 µg/mL (≈ 4.02 µM) | 64 µg/mL (≈ 32.1 µM) | 8 µg/mL (≈ 4.02 µM) | 4 µg/mL (≈ 2.01 µM)
7 | CCCCCCCCCCCC(=O)N[C@@H](CCCNC(=N)N)C(=O)N[C@@H](CO)C(=O)N[C@@H](CCCNC(=N)N)C(=O)N[C@@H](Cc1c[nH]c2ccccc12)C(=O)N[C@@H](CCCNC(=N)N)C(=O)N[C@@H](CC(=O)O)C(=O)N[C@H](C(=O)N[C@@H](Cc1cccc2ccccc12)C(=O)N[C@@H](CCCNC(=N)N)C(=O)N[C@@H](CC(N)=O)C(=O)N[C@@H](Cc1ccccc1)C(=O)N[C@@H](CCSC)C(=O)N[C@@H](CCCNC(=N)N)C(N)=O)C(C)C [Peptide 151, Lauryl-RSRWRDVZRNFMR-NH2 Z = 1-naphthylalanine] (Lauroyl-RSRWRDV[1Nal]RNFMR-NH2) | >64 µg/mL | 4 µg/mL (≈ 1.94 µM) | 64 µg/mL (≈ 31.1 µM) | 8 µg/mL (≈ 3.89 µM) | 32 µg/mL (≈ 15.6 µM)
8 | CCCCCCCCCCCC(=O)N[C@H](CCCNC(=N)N)C(=O)N[C@H](CO)C(=O)N[C@H](CCCNC(=N)N)C(=O)N[C@H](CO)C(=O)N[C@H](CCCNC(=N)N)C(=O)N[C@H](CC(=O)O)C(=O)N[C@@H](C(=O)N[C@H](C)C(=O)N[C@H](CCCNC(=N)N)C(=O)N[C@H](CC(N)=O)C(=O)N[C@H](Cc1ccccc1)C(=O)N[C@H](CCSC)C(=O)N[C@H](CCCNC(=N)N)C(N)=O)C(C)C [Peptide 232, Lauryl-rsrsrdvarnfmr-NH2] (Lauroyl-[dR][dS][dR][dS][dR][dD][dV][dA][dR][dN][dF][dM][dR]-NH2) | >64 µg/mL | 16 µg/mL (≈ 8.73 µM) | >64 µg/mL | >64 µg/mL | >64 µg/mL
